Data on 8 compounds can be found in patent EP2021356B1, “HIV VACCINE” (priority 2006, dated 2007).

Ends that are not written are not given here.

One test concerns the target HLA-A*0201 molecule (Homo sapiens, UniProt P04439, D140Y/D185E/D98H/E176V/E277Q/G131W/G231S/I119V/I121R/I166T/I218V/L300P/L318F/N151K/N90K/P208A/P217A/Q86G/Q94H/R138H/R169H/T345S). Description: In vitro binding to HLA-A*0201.
Details: not given
For orientation: IC50 means the concentration that inhibits the measured activity by half. In turn, `CC[C@H](C)[C@H](NC(=O)[C@H](CC(C)C)NC(=O)[C@H](CCC(N)=O)NC(=O)[C@H](CC(=O)O)NC(=O)[C@H](C)NC(=O)[C@H](CC(C)C)NC(=O)CN)C(=O)N[C@@H](Cc1c[nH]cn1)C(=O)N[C@@H](CC(C)C)C(=O)O` [Vif 101 (9L)] came in with an IC50 of 0.219 µM.

DLADQLIHL [Vif 101 (1 D)]: the IC50 stood at 1.95 µM.

With ELADQLIHL [Vif101(1E)^var], the IC50 is 6.59 µM.

GLADQLIHI [Vif 101 (9 I)] gave an IC50 of 0.03 µM.

HLADQLIHQ [G1HL9Q] registered an IC50 of 1.16 µM.

SLADQLIHL [Vif 101 (1 S)] had an IC50 of 0.043 µM.

In the next test the test system is peptide pulsed HHD-EL4S3-Rob target cells.
Experiment: not given
The following applies: Corbet et al., 2003; cited from earlier work.
As to ALVEMGHHV [Vpu66(9V)^mod], the “immunogenicity of anchor-optimized epitope with cross-reaction to the natural epitope” value was “very strong immune response”.

As for FLGKIWPV [Gag433(9V)^mod], the “immunogenicity of anchor-optimized epitope with cross-reaction to the natural epitope” value is “very strong immunogens”.
